Measurements from PMC11110727, “Exploiting thiol-functionalized benzosiloxaboroles for achieving diverse substitution patterns – synthesis, characterization and biological evaluation of promising antibacterial agents” (RSC Medicinal Chemistry, 2024).
Values after ≈ are worked out from the molar mass of the structure shown. Like-named read-outs stand apart in the source and are kept apart here.

Tests used:
[1] = tested on: E. cloacae DSM 6234; experiment: Antibacterial activity: MIC/MBC, MIC with PAβN, disc-diffusion; format: cell-based, Enterobacter cloacae; conditions: E. cloacae DSM 6234; for MIC: Enterobacter cloacae, DSM6234, read-out: MIC; for -fold reduction of MIC in the presence of PAβN: PAβN 20 μg mL^−1, MHB + 1 mM MgSO4
In short: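 Strains were subcultured twice on TSA at 30 °C. They were then tested by disc diffusion (EUCAST/CLSI), by CLSI broth-microdilution MIC in Mueller–Hinton II broth and by CLSI MBC, with compounds in DMSO.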

[2] = tested on: C. albicans ATCC 90028; experiment: Antifungal activity: MIC/MFC, disc-diffusion; format: cell-based, Candida albicans; conditions: for diameter of inhibition zone: C. albicans ATCC 90028, (-) = zone not observed, paper discs 9 mm; for MIC: Candida albicans, ATCC90028, read-out: MIC
In short: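 MIC and disc-diffusion testing used EUCAST and CLSI guidance, and bactericidal and fungicidal endpoints used CLSI methods. Before testing, yeasts were grown twice on Sabouraud dextrose agar and bacteria twice on TSA, 24–48 h at 30 °C. DMSO was the compound solvent, with linezolid (Gram-positive) and fluconazole (fungi) as references.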

[3] = tested on: C. krusei ATCC 6258; experiment: Antifungal activity: MIC/MFC, disc-diffusion; format: cell-based; conditions: for diameter of inhibition zone: C. krusei ATCC 6258, (-) = zone not observed, paper discs 9 mm; for MIC: Pichia kudriavzevii, ATCC6258, read-out: MIC
In short: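 Compounds in DMSO were tested by disc diffusion and MIC determination following EUCAST/CLSI guidance, with fungicidal concentration (MFC) per CLSI. Strain first grown twice-checked on Sabouraud dextrose agar, 30 °C, 24–48 h.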

[4] = tested on: Staphylococcus aureus, MSSA and MRSA strains; experiment: Antibacterial activity against S. aureus strains (text summaries); format: cell-based; conditions: for MBC / MIC: Staphylococcus aureus; for MBC: lowest MBC values; for Eagle effect (paradoxical growth) during MBC determination: S. aureus ATCC 6538P and five MRSA clinical strains
Experimental: Direct antimicrobial activity was determined against the following standard strains: (1) Gram-positive cocci: methicillin-sensitive Staphylococcus aureus ATCC 6538P (MSSA), methicillin-resistant S. aureus subsp. aureus ATCC 43300 (MRSA), S. epidermidis ATCC 12228, Enterococcus faecium ATCC 6057, E. faecalis ATCC 29212, Bacillus subtilis ATCC 6633; (2) Gram-negative bacteria from Enterobacteriales order: Klebsiella pneumoniae ATCC 13883, Escherichia coli ATCC 25922, Enterobacter cloacae DSM 6234, Proteus mirabilis ATCC 12453, Serratia marcescens ATCC 13880; (3) Gram-negative non-fermentative rods: Acinetobacter baumannii ATCC 19606, Pseudomonas aeruginosa ATCC 27853, Stenotrophomonas maltophilia ATCC 12714, S. maltophilia ATCC 13637, Burkholderia cepacia ATCC 25416, Bordetella bronchiseptica ATCC 4617; (4) yeasts: Candida albicans ATCC 90028, C. krusei ATCC 6258, C. parapsilosis ATCC 22019, C. tropicalis (Castellani) Berkhout ATCC 750, C. tropicalis IBA 171, C. guilliermondii IBA 155, and Saccharomyces cerevisiae ATCC 9763. Moreover, 5 clinical strains of methicillin-resistant S. aureus were also included: NMI 664 K, NMI 1576 K, NMI 1712 K, NMI 1991 K, and NMI 2541 K. All strains were stored at −80 °C. Prior to testing, each bacterial strain was subcultured twice on tryptic soy agar TSA (bioMerieux) medium and yeast strains on Sabouraud dextrose agar (bioMerieux) for 24–48 h at 30 °C to ensure viability. The antimicrobial activity was evaluated as previously described[26] by the disc-diffusion method and the MIC determination assays according to the EUCAST (ref. [71] and [72]) and CLSI (ref. [53] and [73]) recommendations. Assessment of bactericidal (MBC) and fungicidal (MFC) activities was performed according to the CLSI recommendations.[54,74] The following reference agents were used: fluconazole (in the case of fungi), linezolid (for Gram-positive bacteria), and nitrofurantoin (for Gram-negative rods). The new benzosiloxaboroles were dissolved in DMSO (Sigma).

[5] = tested on: Human normal lung fibroblasts MRC-5; experiment: MTT-based viability (cytotoxicity) assay; conditions: for IC50: Homo sapiens, MRC5, 48 h
In short: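 MRC-5 pd30 human lung fibroblasts in supplemented MEME at 37 °C, 5% CO2; viability by MTT, absorbance 570 nm, triplicate, as percent of control cells. Selectivity index taken as IC50/MIC against S. aureus MRSA strains.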

[6] = both MSSA and MRSA strains, read-out: MIC values against Staphylococcus aureus
[7] = standard and five clinical MRSA strains (Table 4), read-out: MIC (MRSA)

Row | SMILES | MIC [1] | diameter of inhibition zone [2] | MIC [2] | diameter of inhibition zone [3] | MIC [3] | MBC [4] | -fold reduction of MIC in the presence of PAβN [1] | Eagle effect (paradoxical growth) during MBC determination [4] | viability of MRC-5 ([5]; 6.25 µg·mL−1, 48 h) | viability of MRC-5 ([5]; 12.5 µg·mL−1, 48 h) | viability of MRC-5 ([5]; 25 µg·mL−1, 48 h) | viability of MRC-5 ([5]; 50 µg·mL−1, 48 h) | viability of MRC-5 ([5]; 100 µg·mL−1, 48 h) | viability of MRC-5 ([5]; 200 µg·mL−1, 48 h) | viability of MRC-5 ([5]; 400 µg·mL−1, 48 h) | IC50 [5] | MIC [4, 6] | MIC [4, 7]
1 | C[Si]1(C)OB(O)c2cc(F)c(S)c(F)c21 [Compound 1e, 5,7-Difluoro-6-mercapto-1,1-dimethylbenzo[c][1,2,5]oxasilaborol-3(1H)-ol] | > 400 µg/mL | 15 mm | 100 µg/mL (≈ 406 µM) | 13 mm | 400 µg/mL (≈ 1630 µM) | 25 to 50 µg/mL (≈ 102 to 203 µM) | – | – | – | – | – | – | – | – | – | – | – | –
2 | C[Si]1(C)OB(O)c2ccc(S)c(F)c21 [Compound 2e, 7-Fluoro-6-mercapto-1,1-dimethylbenzo[c][1,2,5]oxasilaborol-3(1H)-ol] | > 100 µg/mL | – | > 100 µg/mL | – | > 100 µg/mL | 25 to 50 µg/mL (≈ 110 to 219 µM) | – | – | – | – | – | – | – | – | – | – | – | –
3 | COC(=O)CCSc1ccc2c(c1F)[Si](C)(C)OB2O [Compound 4, Methyl 3-((7-fluoro-3-hydroxy-1,1-dimethyl-1,3-dihydrobenzo[c][1,2,5]oxasilaborol-6-yl)thio)propanoate] | > 400 µg/mL | 12 mm | > 400 µg/mL | 12 mm | 200 µg/mL (≈ 636 µM) | – | 8 -fold | Eagle effect | – | – | – | – | – | – | – | – | – | –
4 | C[Si]1(C)OB(O)c2cc(F)c(SCCC#N)c(F)c21 [Compound 6, 3-((5,7-Difluoro-3-hydroxy-1,1-dimethyl-1,3-dihydrobenzo[c][1,2,5]oxasilaborol-6-yl)thio)propanenitrile] | > 400 µg/mL | – | > 400 µg/mL | – | > 400 µg/mL | – | – | Eagle effect | 104.0±5.7 % of control ± SD | 112.1±1.8 % of control ± SD | 104.7±6.7 % of control ± SD | 108.3±3.0 % of control ± SD | 90.4±0.5 % of control ± SD | 43.6±5.1 % of control ± SD | 29.5±5.8 % of control ± SD | 140 µg/mL (≈ 468 µM) | 1.56 to 12.5 µg/mL (≈ 5.21 to 41.8 µM) | –
5 | C[Si]1(C)OB(O)c2cc(F)c(SC3CC(=O)NC3=O)c(F)c21 (stereo not shown) [Compound 12, 3-((5,7-Difluoro-3-hydroxy-1,1-dimethyl-1,3-dihydrobenzo[c][1,2,5]oxasilaborol-6-yl)thio)pyrrolidine-2,5-dione] | > 400 µg/mL | – | > 400 µg/mL | – | > 400 µg/mL | – | 8 -fold | – | 103.0±1.5 % of control ± SD | 104.4±1.9 % of control ± SD | 94.9±2.3 % of control ± SD | 86.1±6.9 % of control ± SD | 76.4±3.5 % of control ± SD | 46.9±2.7 % of control ± SD | 0.4±0.2 % of control ± SD | 167 µg/mL (≈ 488 µM) | 1.56 to 12.5 µg/mL (≈ 4.55 to 36.4 µM) | –
6 | C[Si]1(C)OB(O)c2cc(F)c(SCCS(=O)(=O)c3ccccc3)c(F)c21 [Compound 20, 5,7-Difluoro-1,1-dimethyl-6-((2-(phenylsulfonyl)ethyl)thio)benzo[c][1,2,5]oxasilaborol-3(1H)-ol] | > 400 µg/mL | – | > 400 µg/mL | – | > 400 µg/mL | – | 4 -fold | Eagle effect | 101.2±1.7 % of control ± SD | 95.3±1.0 % of control ± SD | 93.5±2.1 % of control ± SD | 84.0±1.5 % of control ± SD | 68.5±4.9 % of control ± SD | 38.8±4.8 % of control ± SD | 3.4±0.9 % of control ± SD | 122 µg/mL (≈ 294 µM) | 1.56 to 12.5 µg/mL (≈ 3.77 to 30.2 µM) | 3.12 to 6.25 µg/mL (≈ 7.53 to 15.1 µM)
7 | CC(=O)CSc1ccc2c(c1F)[Si](C)(C)OB2O [Compound 22, 1-((7-Fluoro-3-hydroxy-1,1-dimethyl-1,3-dihydrobenzo[c][1,2,5]oxasilaborol-6-yl)thio)propan-2-one] | > 400 µg/mL | – | > 400 µg/mL | 12 mm | 200 µg/mL (≈ 704 µM) | – | – | – | 92.1±0.1 % of control ± SD | 91.5±2.5 % of control ± SD | 85.2±1.1 % of control ± SD | 94.4±2.1 % of control ± SD | 78.4±4.5 % of control ± SD | 69.6±3.7 % of control ± SD | 41.4±0.4 % of control ± SD | > 200 µg/mL | 1.56 to 12.5 µg/mL (≈ 5.49 to 44 µM) | 3.12 to 6.25 µg/mL (≈ 11 to 22 µM)
8 | C[Si]1(C)OB(O)c2cc(F)c(S(N)(=O)=O)c(F)c21 [Compound 27, 5,7-Difluoro-3-hydroxy-1,1-dimethyl-1,3-dihydrobenzo[c][1,2,5]oxasilaborole-6-sulfonamide] | > 400 µg/mL | – | > 400 µg/mL | – | > 400 µg/mL | – | – | – | 74.1±3.1 % of control ± SD | 74.1±1.4 % of control ± SD | 79.3±9.5 % of control ± SD | 79.7±7.5 % of control ± SD | 74.3±7.9 % of control ± SD | 68.5±3.4 % of control ± SD | 66.2±2.4 % of control ± SD | > 400 µg/mL | – | –
9 | C[Si]1(C)OB(O)c2cc(F)c(S(=O)(=O)Nc3ccc(F)cc3)c(F)c21 [Compound 28, 5,7-Difluoro-N-(4-fluorophenyl)-3-hydroxy-1,1-dimethyl-1,3-dihydrobenzo[c][1,2,5]oxasilaborole-6-sulfonamide] | > 400 µg/mL | – | > 400 µg/mL | – | > 400 µg/mL | – | – | – | 93.3±1.9 % of control ± SD | 82.6±1.2 % of control ± SD | 75.1±5.4 % of control ± SD | 65.5±1.8 % of control ± SD | 47.7±3.7 % of control ± SD | 32.5±0.0 % of control ± SD | 15.6±0.1 % of control ± SD | 74.9 µg/mL (≈ 193 µM) | – | –
